For assay [1], the target named is BCL6-NCOR2(SMRT) corepressor protein-protein interaction (Homo sapiens (Human), UniProt P41182). The experiment in a line: NanoBRET cell assay. The format is cell-based. The settings on record: read-out: NanoBRET cell avg pIC50 (converted). The text has this: At 20 hr post-transfection, cells were collected, washed with PBS, and exchanged into media containing phenol red-free OptiMEM+4% FBS (Life Technology).
(In general: Bioluminescence resonance energy transfer reports proximity on the nanometre scale.)

The target of assay [2] is human BCL6 BTB domain (Trx-6×His-BCL6) / BCOR-AF633 peptide (Homo sapiens (Human), UniProt P41182). The experiment in a line: HTRF assay. The format is binding. Particulars: 1 nM Trx-6×His-BCL6, 300 nM BCOR-AF633 peptide, 2 hours incubation.
Description: The % inhibition at each concentration was calculated by normalising FRET ratio to the appropriate high (DMSO with all reagents) and low (DMSO without BCL6) controls.

Molecules are shown by their SMILES.

As to `C[C@H]1CCOc2c(c3cc(Nc4nc(N5CCC(C(=O)N(C)C)CC5)ncc4Cl)ccc3n(C)c2=O)N1` [Example 5d, (S)-1-(5-chloro-4-((2,7-dimethyl-6-oxo-1,2,3,4,6,7-hexahydro-[1,4]oxazepino[2,3-c]quinolin-10-yl)amino)pyrimidin-2-yl)-N,N-dimethylpiperidine-4-carboxamide], in assay [1], the IC50 is 1410 nM. The “HTRF avg pIC50 (1 nM)” value in assay [2] is reported as 6.83.
For `Cn1c(=O)c2c(c3cc(Nc4nc(N5CCC(F)(F)CC5)ncc4Cl)cnc31)N[C@@H](C1CC1)CCO2` [Example 5s, (R)-10-((5-chloro-2-(4,4-difluoropiperidin-1-yl)pyrimidin-4-yl)amino)-2-cyclopropyl-7-methyl-1,2,3,4-tetrahydro-[1,4]oxazepino[2,3-c][1,8]naphthyridin-6(7H)-one], the IC50 in assay [1] was 234 nM. For the same compound, in assay [2], the “HTRF avg pIC50 (1 nM)” value is listed as 7.13.
The corresponding values for `C[C@H]1CCOc2c(c3cc(Nc4ccnc(Cl)c4Cl)ccc3n(C)c2=O)N1` [Example 4a, (S)-10-((2,3-dichloropyridin-4-yl)amino)-2,7-dimethyl-1,2,3,4-tetrahydro-[1,4]oxazepino[2,3-c]quinolin-6(7H)-one] are 4900 nM and 6.21.
For the compound `C[C@H]1COC(=O)c2c(c3cc(Nc4nc(N5C6CCCC5CC6)ncc4Cl)ccc3n(C)c2=O)N1` [Example 8b, (2S)-10-((2-(8-azabicyclo[3.2.1]octan-8-yl)-5-chloropyrimidin-4-yl)amino)-2,7-dimethyl-2,3-dihydro-[1,4]oxazepino[6,5-c]quinoline-5,6(1H,7H)-dione], the IC50 in assay [1] was 2190 nM. In addition, in assay [2], the “HTRF avg pIC50 (1 nM)” value was determined as 6.85.
The corresponding values for `C[C@@H]1CN(c2ncc(Cl)c(Nc3ccc4c(c3)c3c(c(=O)n4C)C(=O)OC[C@H](C)N3)n2)C[C@H](C)O1` [Example 8a, (S)-10-((5-chloro-2-((2S,6R)-2,6-dimethylmorpholino)pyrimidin-4-yl)amino)-2,7-dimethyl-2,3-dihydro-[1,4]oxazepino[6,5-c]quinoline-5,6(1H,7H)-dione] are 9550 nM and 6.97.
The corresponding values for `C[C@@H]1CN(c2ncc(Cl)c(Nc3ccc4c(c3)c3c(c(=O)n4C)OCC[C@H](C)N3)n2)C[C@H](C)O1` [Example 5g, (S)-10-((5-chloro-2-((2S,6R)-2,6-dimethylmorpholino)pyrimidin-4-yl)amino)-2,7-dimethyl-1,2,3,4-tetrahydro-[1,4]oxazepino[2,3-c]quinolin-6(7H)-one] are 2040 nM and 6.88.
On to `Cn1c(=O)c2c(c3cc(Nc4nc(N5C6COCC5CC(O)C6)ncc4Cl)ccc31)N[C@@H](C1CC1)CCO2` (stereo partly drawn) [Example 5n, (R)-10-((5-chloro-2-((1R,5S,7S)-7-hydroxy-3-oxa-9-azabicyclo[3.3.1]nonan-9-yl)pyrimidin-4-yl)amino)-2-cyclopropyl-7-methyl-1,2,3,4-tetrahydro-[1,4]oxazepino[2,3-c]quinolin-6(7H)-one], for which the IC50 in assay [1] was 36.3 nM. The “HTRF avg pIC50 (1 nM)” value in assay [2] was 7.97.
For `Cn1c(=O)c2c(c3cc(Nc4ccnc(Cl)c4Cl)ccc31)N[C@@H](C1CC1)CCO2` [Example 4c] the same measures were 708 nM and 6.85.
For `Cn1c(=O)c2c(c3cc(Nc4ccnc(Cl)c4C#N)ccc31)N[C@@H](C1CC1)CCS2(=O)=O` [Example 1u, (R)-2-chloro-4-((2-cyclopropyl-7-methyl-5,5-dioxido-6-oxo-1,2,3,4,6,7-hexahydro-[1,4]thiazepino[2,3-c]quinolin-10-yl)amino)nicotinonitrile] the same measures were 3090 nM and 8.15.
`Cn1c(=O)c2c(c3cc(Nc4cc(C(=O)N5CC(C(F)(F)F)C5)nc(Cl)c4C#N)ccc31)N[C@@H](C1CC1)CCO2` [Example 3b, (R)-2-chloro-4-((2-cyclopropyl-7-methyl-6-oxo-1,2,3,4,6,7-hexahydro-[1,4]oxazepino[2,3-c]quinolin-10-yl)amino)-6-(3-(trifluoromethyl)azetidine-1-carbonyl)nicotinonitrile]: the IC50 in assay [1] was 646 nM. Moreover, the “HTRF avg pIC50 (1 nM)” value in assay [2] came to 7.32.
The corresponding values for `O=c1c2c(c3cc(Nc4nc(N5C6CCC5COC6)ncc4Cl)ccc3n1CC1CC(F)(F)C1)N[C@@H](C1CC1)CCO2` [Example 5q, (R)-10-((2-(3-oxa-8-azabicyclo[3.2.1]octan-8-yl)-5-chloropyrimidin-4-yl)amino)-2-cyclopropyl-7-((3,3-difluorocyclobutyl)methyl)-1,2,3,4-tetrahydro-[1,4]oxazepino[2,3-c]quinolin-6(7H)-one] are 97.7 nM and 7.63.
For `Cn1c(=O)c2c(c3cc(Nc4nc(N5CCC(F)(F)CC5)ncc4Cl)ccc31)NC(C1CC1)COC2=O` (centres unmarked) [Example 8o, 10-((5-chloro-2-(4,4-difluoropiperidin-1-yl)pyrimidin-4-yl)amino)-2-cyclopropyl-7-methyl-2,3-dihydro-[1,4]oxazepino[6,5-c]quinoline-5,6(1H,7H)-dione] the same measures were 9330 nM and 6.43.
With `Cn1c(=O)c2c(c3cc(Nc4nc(N5C6COCC5CC(C)(O)C6)ncc4Cl)ccc31)N[C@@H](C1CC1)CCO2` (stereo partly drawn) [Example 12h, (R)-10-((5-chloro-2-((1R,5S,7S)-7-hydroxy-7-methyl-3-oxa-9-azabicyclo[3.3.1]nonan-9-yl)pyrimidin-4-yl)amino)-2-cyclopropyl-7-methyl-1,2,3,4-tetrahydro-[1,4]oxazepino[2,3-c]quinolin-6(7H)-one], the IC50 in assay [1] was 145 nM. Also, the “HTRF avg pIC50 (1 nM)” value in assay [2] is 7.93.
For `Cn1c(=O)c2c(c3cc(Nc4nc(N5C6CCC5COC6)ncc4Cl)ccc31)N[C@@H](C1CC1)CCO2` [Example 5l, (R)-10-((2-(3-oxa-8-azabicyclo[3.2.1]octan-8-yl)-5-chloropyrimidin-4-yl)amino)-2-cyclopropyl-7-methyl-1,2,3,4-tetrahydro-[1,4]oxazepino[2,3-c]quinolin-6(7H)-one] the same measures were 120 nM and 7.49.
The corresponding values for `O=c1c2c(c3cc(Nc4nc(N5C6COCC5CC(O)C6)ncc4Cl)ccc3n1CC1CC(F)(F)C1)N[C@@H](C1CC1)CCO2` (stereo partly drawn) [Example 5u, (R)-10-((5-chloro-2-((1R,5S,7S)-7-hydroxy-3-oxa-9-azabicyclo[3.3.1]nonan-9-yl)pyrimidin-4-yl)amino)-2-cyclopropyl-7-((3,3-difluorocyclobutyl)methyl)-1,2,3,4-tetrahydro-[1,4]oxazepino[2,3-c]quinolin-6(7H)-one] are 28.8 nM and 8.08.
For `Cn1c(=O)c2c(c3cc(Nc4nc(N5C6CC7CC5CC(C6)O7)ncc4Cl)ccc31)N[C@@H](C1CC1)CCO2` [Example 5o, (R)-10-((2-(2-oxa-6-azaadamantan-6-yl)-5-chloropyrimidin-4-yl)amino)-2-cyclopropyl-7-methyl-1,2,3,4-tetrahydro-[1,4]oxazepino[2,3-c]quinolin-6(7H)-one] the same measures were 89.1 nM and 7.64.

The values above are taken from patent US20230287003A1, “BCL6 INHIBITORS” (Cancer Research Technology Limited, priority 2018, published 2023).
